Where a name gives a salt, the structure may show the parent alone.
Test: Particle size distribution by laser light scattering (Malvern Mastersizer S)
Assay type: physicochemical
Details: mean equivalent spherical diameter; raloxifene hydrochloride used in Formulations 1-4
Text: For example, in Formulations 1-4 below, d(0.5) = 38.8 µm and d(0.9) = 90.4 µm. All particle sizes herein refer to the mean equivalent spherical diameter measured by laser light scattering techniques. Thus, the notation "d(0.5) greater than about 35 µm" means that 50% of the particles by volume have a mean equivalent spherical diameter of more than about 35 µm, as measured by laser light scattering. The laser light scattering measurement instrument used to measure the particle size distributions in the Examples was a Malvern Mastersizer® S. The dissolution profile was generated by testing in either 900 mL or 2 L of a 0.1 % aqueous polysorbate 80 solution, using paddle apparatus (USP Apparatus II) at 50 rpm at 37°C.

- d(0.5): 38.8 µm
- d(0.9): 90.4 µm
Compound: O=C(c1ccc(OCCN2CCCCC2)cc1)c1c(-c2ccc(O)cc2)sc2cc(O)ccc12 [raloxifene hydrochloride]

From patent publication EP2098223A1, “Compressed solid dosage form” (Teva Pharmaceutical Industries Ltd., priority 2004, dated 2006)
